Experimental data as given in paper PMC4370192, “Discovery of Specific Inhibitors for Intestinal E. coli β-Glucuronidase through In Silico Virtual Screening” (The Scientific World Journal, 2015).

Legend:
[1] = molecular target: T1, human βG (hβG) (Homo sapiens, UniProt P08236); test: In vitro βG-activity assay (pNPG hydrolysis), hβG; assay type: biochemical; details: pH 5.4, percent of activity vs untreated control
T1 construct: histidine tag (N); made in house; host or cells: E. coli BL21 (DE3)
T1 sequence (P08236 23-651): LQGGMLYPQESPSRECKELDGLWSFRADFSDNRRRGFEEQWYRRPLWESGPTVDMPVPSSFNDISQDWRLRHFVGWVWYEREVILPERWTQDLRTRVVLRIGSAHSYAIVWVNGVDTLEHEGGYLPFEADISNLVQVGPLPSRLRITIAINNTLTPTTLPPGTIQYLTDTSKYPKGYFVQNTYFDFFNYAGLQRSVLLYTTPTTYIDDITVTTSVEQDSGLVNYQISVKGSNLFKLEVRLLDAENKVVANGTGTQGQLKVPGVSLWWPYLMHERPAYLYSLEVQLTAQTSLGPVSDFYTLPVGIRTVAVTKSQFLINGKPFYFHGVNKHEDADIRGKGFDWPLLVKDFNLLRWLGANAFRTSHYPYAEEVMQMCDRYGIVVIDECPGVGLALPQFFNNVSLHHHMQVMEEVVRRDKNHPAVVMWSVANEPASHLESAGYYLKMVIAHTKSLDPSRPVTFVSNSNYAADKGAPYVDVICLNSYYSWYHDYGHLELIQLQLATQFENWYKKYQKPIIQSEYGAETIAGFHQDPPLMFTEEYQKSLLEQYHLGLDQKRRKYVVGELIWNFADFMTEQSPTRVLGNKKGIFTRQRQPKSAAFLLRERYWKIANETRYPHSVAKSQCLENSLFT
Protocol: (§1) Plasmid pRESTB containing βG gene and a histidine tag at the N-terminus was constructed as described. Recombinant βG (human and E. coli) was produced by isopropyl β-D-thiogalactopyranoside (IPTG) induction of BL21 (DE3) bacteria. βG was purified from bacterial supernatants by affinity chromatography on nickels Sepharose 6 Fast Flow (GE Healthcare). The column was washed by phosphate-buffered saline (PBS), with 50 mM imidazole, and βG was eluted by PBS with 250 mM imidazole. The purified βG was desalted on a Sephadex G-25 column equilibrated with PBS and stored at −80°C.
(§2) The candidate compounds were purchased from SPECS (The Netherlands). Each candidate was provided as a solid power and dissolved in 100% DMSO (Sigma-Aldrich) to 10 mM as stock. Candidates were screened for their inhibition specificity of eβG versus hβG, which were conducted at pH 7.3 or pH 5.4, in triplicate, respectively. 40 μL purified βG was treated with 10 μL compound solution at 37°C for 30 min and sequentially incubated with 50 μL of pNPG (Sigma-Aldrich) at 37°C for 30 min. Reactions were quenched with 5 μL of 2 N sodium hydroxide (Sigma-Aldrich). Each reaction consisted of 3.75 ng purified βG, 50 μM compound, and 5 mM pNPG in PBS containing 10% DMSO and 0.05% BSA (Sigma-Aldrich). βG-activities were measured by color development of pNP detected on a microplate reader at OD 405 nm.
(Table S1) The candidate compounds were purchased from SPECS (Zoetermeer, The Netherlands). Each candidate was rovided as a solid power and dissolved in 100% DMSO (Sigma-Aldrich, MO, USA) to 10 mM as stock. Candidates were screening for their inhibition specificity of eβG verse hβG, which were conducted at pH 7.3 or pH 5.4 in triplicate, respectively. 40 µL purified βG was treated with 10 µL compound solution at 37 °C for 30 min, and sequentially incubated with 50 µL of pNPG (Sigma-Aldrich) at 37 °C for 30 min. Reactions were quenched with 5 µL of 2 N sodium hydroxide (Sigma-Aldrich). Each reaction consisted of 3.75 ng purified βG, 50 µM compound, and 5 mM pNPG in PBS containing 10% DMSO and 0.05% BSA (Sigma-Aldrich). βG-activities were measured by color development of pNP detected on a microplate reader at OD 405 nm. […]
candidate compounds were purchased from SPECS (Zoetermeer, The Netherlands). Each candidate was provided as a solid power and dissolved in 100% DMSO (Sigma-Aldrich, MO, USA) to 10 mM as stock. Candidates were screening for their inhibition specificity of eβG verse hβG, which were conducted at pH 7.3 or pH 5.4 in triplicate, respectively. 40 μL purified βG was treated with 10 μL compound solution at 37 °C for 30 min, and sequentially incubated with 50 μL of pNPG (Sigma-Aldrich) at 37 °C for 30 min. Reactions were quenched with 5 μL of 2 N sodium hydroxide (Sigma-Aldrich). Each reaction consisted of 3.75 ng purified βG, 50 μM compound, and 5 mM pNPG in PBS containing 10% DMSO and 0.05% BSA (Sigma-Aldrich). βG-activities were measured by color development of pNP detected on a microplate reader at OD 405 nm.

[2] = molecular target: T2, E. coli β-glucuronidase (eβG) (Escherichia coli, UniProt P05804); test: In vitro βG-activity assay (pNPG hydrolysis), eβG; assay type: biochemical; details: 50 μM compound, pH 7.3, percent of activity vs untreated control
T2 construct: histidine tag (N); made in house; host or cells: E. coli BL21 (DE3)
T2 sequence (P05804 whole entry): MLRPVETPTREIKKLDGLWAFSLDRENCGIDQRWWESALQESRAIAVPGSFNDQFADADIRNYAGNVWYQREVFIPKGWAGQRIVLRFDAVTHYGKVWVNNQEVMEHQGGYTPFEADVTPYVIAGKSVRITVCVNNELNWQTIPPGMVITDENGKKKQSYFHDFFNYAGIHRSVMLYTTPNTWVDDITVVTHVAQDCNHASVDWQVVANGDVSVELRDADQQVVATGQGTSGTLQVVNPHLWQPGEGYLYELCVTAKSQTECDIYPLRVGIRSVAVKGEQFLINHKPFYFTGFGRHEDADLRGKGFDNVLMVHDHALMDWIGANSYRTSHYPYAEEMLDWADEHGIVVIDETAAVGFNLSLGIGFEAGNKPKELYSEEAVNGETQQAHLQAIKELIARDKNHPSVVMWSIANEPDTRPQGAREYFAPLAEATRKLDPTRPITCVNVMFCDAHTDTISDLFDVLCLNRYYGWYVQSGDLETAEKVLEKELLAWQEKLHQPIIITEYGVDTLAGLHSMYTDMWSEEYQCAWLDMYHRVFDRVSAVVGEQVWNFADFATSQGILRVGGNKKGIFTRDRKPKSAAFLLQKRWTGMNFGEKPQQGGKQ
Protocol: as §1
as §2, with “nm. […] For IC50 determination, compounds at various concentrations (100 μM to 0.001 μM) were added.” for “nm.”
Supplementary file 740815.f1.pdf: Fifty-nine candidate compounds were acquired from the initial virtually screening which was designed to target the bacterial loop of eβG and its active site. The docking energy scores of 59 candidate compounds measured by the DOCK program are -43 to -55 kcal/mol. (Table S1) The candidate compounds were purchased from SPECS (Zoetermeer, The Netherlands). Each candidate was rovided as a solid power and dissolved in 100% DMSO (Sigma-Aldrich, MO, USA) to 10 mM as stock. Candidates were screening for their inhibition specificity of eβG verse hβG, which were conducted at pH 7.3 or pH 5.4 in triplicate, respectively. 40 µL purified βG was treated with 10 µL compound solution at 37 °C for 30 min, and sequentially incubated with 50 µL of pNPG (Sigma-Aldrich) at 37 °C for 30 min. Reactions were quenched with 5 µL of 2 N sodium hydroxide (Sigma-Aldrich). Each reaction consisted of 3.75 ng purified βG, 50 µM compound, and 5 mM pNPG in PBS containing 10% DMSO and 0.05% BSA (Sigma-Aldrich). βG-activities were measured by color development of pNP detected on a microplate reader at OD 405 nm. […] Especially, the inhibiting ability against eβG activity was >95% in 7 candidates of eβG specific inhibitors (Table S1).
Fifty-nine candidate compounds were acquired from the initial virtually screening which was designed to target the bacterial loop of eβG and its active site. The docking energy scores of 59 candidate compounds measured by the DOCK program are -43 to -55 kcal/mol. (Table S1) The candidate compounds were purchased from SPECS (Zoetermeer, The Netherlands). Each candidate was provided as a solid power and dissolved in 100% DMSO (Sigma-Aldrich, MO, USA) to 10 mM as stock. Candidates were screening for their inhibition specificity of eβG verse hβG, which were conducted at pH 7.3 or pH 5.4 in triplicate, respectively. 40 μL purified βG was treated with 10 μL compound solution at 37 °C for 30 min, and sequentially incubated with 50 μL of pNPG (Sigma-Aldrich) at 37 °C for 30 min. Reactions were quenched with 5 μL of 2 N sodium hydroxide (Sigma-Aldrich). Each reaction consisted of 3.75 ng purified βG, 50 μM compound, and 5 mM pNPG in PBS containing 10% DMSO and 0.05% BSA (Sigma-Aldrich). βG-activities were measured by color development of pNP detected on a microplate reader at OD 405 nm. […]
percent of βG activity compared with the untreated control.
Especially, the inhibiting ability against eβG activity was >95% in 7 candidates of eβG specific inhibitors (Table S1).
Table S1. […]

| SMILES | hβG activity (%) with 50 μM compound [1] [%] | eβG activity (%) with 50 μM compound [2] [%] |
| --- | --- | --- |
| O=C1c2ccccc2C(=O)c2c1cccc2S(=O)(=O)Nc1ccc(Cl)cc1 [Compound 8074] | 109.09 | 22.15 |
| O=S(=O)(c1ccc(Br)cc1)N1CCNCC1 [Compound 8329] | 97.77 | 33.19 |
| Cc1cccc(C(=O)NC2(C(F)(F)F)C(=O)Nc3c2c(=O)[nH]c(=O)n3-c2ccc(Cl)cc2)c1 (stereo not shown) [Compound 8572] | 102.81 | 17.66 |
| Cc1cc(NS(=O)(=O)c2ccc(NC(=O)C(C)Oc3ccc(Cl)cc3Cl)cc2)no1 (stereo not shown) [Compound 8889] | 102.15 | 11.40 |
| CS(=O)(=O)CCC(C(=O)O)N1C(=O)c2ccccc2C1=O (stereo not shown) [Compound 9063] | 105.45 | 32.48 |
| CS(=O)(=O)c1ccc2nc(NC(=O)c3ccccc3C(=O)O)sc2c1 [Compound 9107] | 105.37 | 29.70 |
| COc1ccc(Cl)cc1NC(=O)CC(C(=O)O)N1CCNCC1 (stereo not shown) [Compound 9183] | 107.36 | 39.67 |
| CCN(CC)S(=O)(=O)c1cccc(N=Nc2c(O)[nH]c(=O)[nH]c2=O)c1 [Compound 9274] | 106.69 | 32.34 |
| CCN1CCN(S(=O)(=O)c2cccc(Cl)c2)CC1 [Compound 9572] | 106.78 | 42.66 |
| Cc1ccc2nc(CSc3nc(-c4ccncc4)ccc3C#N)[nH]c2c1 [Compound 9665] | 100.83 | 8.97 |
| COc1ccc2ccccc2c1CNCC1CCNCC1 [Compound 9927] | 113.80 | 25.00 |
